# Like-named read-outs stand apart in the source and are kept apart here.
# Columns and labels:
# [1] = tested on: EGFR activation (granule formation) in A549-EGFRB cells; assay: EGFRB assay, granule count readout; assay type: cell-based; details: for inhibition at 10 µM: read-out: HTS % inhibition at 10 μM Granule count; for IC50 / EC50: read-out: IC50 or EC50 (nM) Granule count
# A549-EGFRB cells = assay: EGFRB assay, nuclei count readout; assay type: cell-based; details: for inhibition at 10 µM: read-out: HTS % inhibition at 10 μM Nuclei count; for HTS % inhibition at 10 μM Nuclei count: pilot screen, 10 μM compound, average of duplicates
# [2] = tested on: A549 cells (wild type EGFR); assay: Alamar Blue viability assay, A549; assay type: cell-based; details: for IC50: Homo sapiens, A549, 120 h, read-out: Alamar Blue viability assay IC50 A549; for Alamar Blue viability assay IC50 A549: 120 hours incubation, * = partial inhibition
# [3] = tested on: H2030 cells (wild type EGFR); assay: Alamar Blue viability assay, H2030; assay type: cell-based; details: for IC50: Homo sapiens, NCI-H2030, 120 h, read-out: Alamar Blue viability assay IC50 H2030; for Alamar Blue viability assay IC50 H2030: 120 hours incubation, * = partial inhibition
# [4] = tested on: H3255 cells (L858R EGFR mutation); assay: Alamar Blue viability assay, H3255; assay type: cell-based, human; details: for IC50: Homo sapiens, NCI-H3255, 120 h, read-out: Alamar Blue viability assay IC50 H3255; for Alamar Blue viability assay IC50 H3255: 120 hours incubation, * = partial inhibition
# [5] = tested on: HCC4011 cells (L858R EGFR mutation); assay: Alamar Blue viability assay, HCC4011; assay type: cell-based, human; details: for IC50: Homo sapiens, HCC4011, 120 h, read-out: Alamar Blue viability assay IC50 HCC4011; for Alamar Blue viability assay IC50 HCC4011: 120 hours incubation, * = partial inhibition
# recombinant EGFR kinase = details: read-out: Reported IC50 toward recombinant EGFR kinase; cited from earlier work
# EGFR kinase = EGFR kinase (Homo sapiens, UniProt P00533); assay: Luminescence ADP production kinase assay, EGFR; assay type: biochemical; details: for Luminescence ADP kinase assay IC50 EGFR: 50 nM enzyme, 200 μM ATP, low limit 10 nM, * = partial inhibition
# SRC kinase = SRC kinase (Homo sapiens, UniProt P12931); assay: Luminescence ADP production kinase assay, SRC; assay type: biochemical; details: for Luminescence ADP kinase assay IC50 SRC: 50 nM enzyme, 200 μM ATP, * = partial inhibition
# VEGFR1 kinase = VEGFR1 kinase (Homo sapiens, UniProt P17948); assay: Luminescence ADP production kinase assay, VEGFR1; details: for Luminescence ADP kinase assay IC50 VEGFR1: 50 nM enzyme, 200 μM ATP, * = partial inhibition
# ABL kinase = ABL kinase (Homo sapiens, UniProt P00519); assay: Luminescence ADP production kinase assay, ABL; assay type: biochemical; details: for Luminescence ADP kinase assay IC50 ABL: 50 nM enzyme, 200 μM ATP, * = partial inhibition
# [6] = inhibitors, dose response up to 10 μM, ±standard deviation, N.E. = no effect
# [7] = inhibitors, dose response up to 10 μM, N.E. = no effect, * = partial inhibition
# [8] = activators, dose response up to 10 μM, N.E. = no effect
# Chain of EGFR kinase (P00533 25-1210): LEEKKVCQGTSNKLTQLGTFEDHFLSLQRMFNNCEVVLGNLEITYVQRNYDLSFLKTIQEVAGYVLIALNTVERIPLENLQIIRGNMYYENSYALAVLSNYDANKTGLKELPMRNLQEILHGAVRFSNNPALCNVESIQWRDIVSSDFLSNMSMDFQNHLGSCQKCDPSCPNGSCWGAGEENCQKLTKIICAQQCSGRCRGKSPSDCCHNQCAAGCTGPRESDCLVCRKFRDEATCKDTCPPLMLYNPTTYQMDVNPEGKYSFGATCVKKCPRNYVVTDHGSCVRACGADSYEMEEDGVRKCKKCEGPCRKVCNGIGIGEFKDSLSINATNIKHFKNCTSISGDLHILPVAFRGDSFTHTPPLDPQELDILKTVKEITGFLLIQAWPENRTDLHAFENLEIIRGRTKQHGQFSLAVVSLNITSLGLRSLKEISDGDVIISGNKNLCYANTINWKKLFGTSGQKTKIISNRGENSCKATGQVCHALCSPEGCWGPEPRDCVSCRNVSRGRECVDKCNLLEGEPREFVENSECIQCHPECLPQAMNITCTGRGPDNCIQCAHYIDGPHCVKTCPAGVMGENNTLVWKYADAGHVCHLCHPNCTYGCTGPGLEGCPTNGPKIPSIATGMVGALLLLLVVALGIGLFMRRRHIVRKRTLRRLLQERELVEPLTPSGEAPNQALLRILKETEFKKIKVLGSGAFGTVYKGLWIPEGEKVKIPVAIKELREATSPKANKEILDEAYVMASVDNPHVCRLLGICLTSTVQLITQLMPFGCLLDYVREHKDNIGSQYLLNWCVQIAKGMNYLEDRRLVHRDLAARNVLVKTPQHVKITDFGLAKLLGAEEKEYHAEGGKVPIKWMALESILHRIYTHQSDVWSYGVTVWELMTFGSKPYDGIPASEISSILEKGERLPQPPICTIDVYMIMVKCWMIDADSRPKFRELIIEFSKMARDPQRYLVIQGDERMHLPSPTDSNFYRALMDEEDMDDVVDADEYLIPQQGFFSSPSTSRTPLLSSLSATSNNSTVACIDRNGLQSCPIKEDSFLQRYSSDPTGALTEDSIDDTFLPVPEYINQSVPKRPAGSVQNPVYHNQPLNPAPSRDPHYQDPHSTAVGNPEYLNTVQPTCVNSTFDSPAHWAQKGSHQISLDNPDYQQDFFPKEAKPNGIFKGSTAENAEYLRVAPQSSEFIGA
# Chain of SRC kinase (P12931 whole entry): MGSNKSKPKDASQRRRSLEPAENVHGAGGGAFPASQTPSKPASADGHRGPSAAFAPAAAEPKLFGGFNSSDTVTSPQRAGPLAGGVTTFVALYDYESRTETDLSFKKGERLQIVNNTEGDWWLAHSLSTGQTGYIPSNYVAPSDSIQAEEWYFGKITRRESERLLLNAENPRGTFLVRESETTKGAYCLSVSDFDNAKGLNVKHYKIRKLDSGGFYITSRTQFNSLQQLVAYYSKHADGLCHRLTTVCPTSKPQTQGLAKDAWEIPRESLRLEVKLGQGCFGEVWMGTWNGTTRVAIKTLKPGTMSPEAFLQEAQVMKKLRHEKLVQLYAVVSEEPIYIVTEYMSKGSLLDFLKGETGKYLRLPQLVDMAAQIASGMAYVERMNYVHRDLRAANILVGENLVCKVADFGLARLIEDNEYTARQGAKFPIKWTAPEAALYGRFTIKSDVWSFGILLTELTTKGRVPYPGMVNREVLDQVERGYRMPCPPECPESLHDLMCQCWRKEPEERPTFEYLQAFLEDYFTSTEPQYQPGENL
# Chain of ABL kinase (P00519 whole entry): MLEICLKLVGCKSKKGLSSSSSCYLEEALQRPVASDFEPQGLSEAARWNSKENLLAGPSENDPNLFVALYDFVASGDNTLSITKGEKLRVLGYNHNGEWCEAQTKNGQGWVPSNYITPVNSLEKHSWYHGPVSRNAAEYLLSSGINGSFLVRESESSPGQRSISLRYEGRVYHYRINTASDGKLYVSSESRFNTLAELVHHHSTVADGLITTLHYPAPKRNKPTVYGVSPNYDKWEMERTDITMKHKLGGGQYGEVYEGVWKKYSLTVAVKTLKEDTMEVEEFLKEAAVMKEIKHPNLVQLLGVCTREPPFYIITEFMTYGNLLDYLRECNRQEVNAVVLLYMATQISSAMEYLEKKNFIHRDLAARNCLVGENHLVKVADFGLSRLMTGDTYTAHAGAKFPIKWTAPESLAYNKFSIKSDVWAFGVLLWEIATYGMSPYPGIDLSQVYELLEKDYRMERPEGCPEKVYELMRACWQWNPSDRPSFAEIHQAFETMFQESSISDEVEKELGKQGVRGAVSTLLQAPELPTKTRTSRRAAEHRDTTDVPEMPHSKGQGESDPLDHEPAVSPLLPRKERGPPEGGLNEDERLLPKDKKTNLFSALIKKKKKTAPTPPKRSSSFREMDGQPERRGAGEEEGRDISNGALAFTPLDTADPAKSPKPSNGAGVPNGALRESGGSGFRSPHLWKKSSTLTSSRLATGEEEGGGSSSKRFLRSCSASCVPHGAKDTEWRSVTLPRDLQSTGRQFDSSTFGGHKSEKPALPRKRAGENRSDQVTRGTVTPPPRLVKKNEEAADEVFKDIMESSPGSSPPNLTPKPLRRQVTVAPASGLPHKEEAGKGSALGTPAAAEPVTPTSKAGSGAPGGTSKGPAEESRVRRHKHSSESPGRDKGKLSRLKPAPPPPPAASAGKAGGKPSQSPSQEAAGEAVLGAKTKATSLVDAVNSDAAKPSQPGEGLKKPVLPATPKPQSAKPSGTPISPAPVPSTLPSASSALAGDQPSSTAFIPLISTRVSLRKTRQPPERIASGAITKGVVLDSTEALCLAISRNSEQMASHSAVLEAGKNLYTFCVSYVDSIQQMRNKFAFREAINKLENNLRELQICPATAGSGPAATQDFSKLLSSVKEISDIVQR
# Chain of VEGFR1 kinase (P17948 27-1338): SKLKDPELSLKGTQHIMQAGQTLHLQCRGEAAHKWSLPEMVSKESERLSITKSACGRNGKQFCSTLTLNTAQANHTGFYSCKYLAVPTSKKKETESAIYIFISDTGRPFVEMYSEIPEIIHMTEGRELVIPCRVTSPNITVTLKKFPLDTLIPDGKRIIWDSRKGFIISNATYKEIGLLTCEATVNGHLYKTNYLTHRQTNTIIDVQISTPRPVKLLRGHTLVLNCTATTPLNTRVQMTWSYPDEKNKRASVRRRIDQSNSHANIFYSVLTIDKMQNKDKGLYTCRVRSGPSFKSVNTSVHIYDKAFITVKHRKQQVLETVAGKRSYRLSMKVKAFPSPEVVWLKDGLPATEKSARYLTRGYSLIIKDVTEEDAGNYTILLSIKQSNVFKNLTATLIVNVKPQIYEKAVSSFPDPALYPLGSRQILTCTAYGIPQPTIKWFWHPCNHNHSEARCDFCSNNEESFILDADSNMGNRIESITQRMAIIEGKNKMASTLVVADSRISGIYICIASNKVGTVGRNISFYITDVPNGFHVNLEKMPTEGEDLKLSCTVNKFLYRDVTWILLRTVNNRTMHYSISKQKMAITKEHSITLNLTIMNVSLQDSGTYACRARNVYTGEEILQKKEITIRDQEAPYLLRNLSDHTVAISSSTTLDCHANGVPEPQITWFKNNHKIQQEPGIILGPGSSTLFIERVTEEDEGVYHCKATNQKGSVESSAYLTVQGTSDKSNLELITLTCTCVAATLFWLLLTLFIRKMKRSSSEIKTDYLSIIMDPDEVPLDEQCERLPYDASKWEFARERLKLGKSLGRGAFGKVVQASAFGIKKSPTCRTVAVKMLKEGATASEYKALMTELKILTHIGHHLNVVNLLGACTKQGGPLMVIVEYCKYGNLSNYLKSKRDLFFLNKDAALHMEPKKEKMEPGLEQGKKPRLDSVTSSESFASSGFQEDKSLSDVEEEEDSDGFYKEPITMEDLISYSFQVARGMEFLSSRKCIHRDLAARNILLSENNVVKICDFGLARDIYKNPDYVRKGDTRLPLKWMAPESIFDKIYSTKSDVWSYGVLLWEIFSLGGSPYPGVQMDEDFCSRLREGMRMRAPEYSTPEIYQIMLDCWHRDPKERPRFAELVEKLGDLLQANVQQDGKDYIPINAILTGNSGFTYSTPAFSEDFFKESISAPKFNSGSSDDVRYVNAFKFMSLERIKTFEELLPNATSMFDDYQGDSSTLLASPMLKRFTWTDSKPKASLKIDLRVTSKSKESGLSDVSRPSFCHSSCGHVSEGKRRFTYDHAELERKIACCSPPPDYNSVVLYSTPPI
IC50 [1],IC50 [2],IC50 [3],IC50 [4],IC50 [5],IC50 (SRC kinase),IC50 (VEGFR1 kinase),SMILES,inhibition at 10 µM [1],inhibition at 10 µM (A549-EGFRB cells),"IC50 [1, 6]",IC50 or EC50 (nM) Nuclei count (A549-EGFRB cells; [7]),HTS % inhibition at 10 μM Nuclei count (A549-EGFRB cells),further results
590 ± 30 nM,> 10000 nM,> 10000 nM,1200 ± 100 nM,1500 ± 100 nM,–,–,"CS(=O)(=O)CCNCc1ccc(-c2ccc3ncnc(Nc4ccc(OCc5cccc(F)c5)c(Cl)c4)c3c2)o1 [Lapatinib, lapatinib]",91%,0%,–,–,–,IC50 or EC50 (nM) Nuclei count (A549-EGFRB cells): N.E.
–,> 10000 nM,> 10000 nM,> 10000 nM,> 10000 nM,> 10000 nM,> 10000 nM,"CC1(C)O[C@@H]2C[C@H]3[C@@H]4C[C@H](F)C5=CC(=O)CC[C@]5(C)[C@H]4[C@@H](O)C[C@]3(C)[C@]2(C(=O)CO)O1 [Flurandrenolide, flurandrenolide]",-165%,7%,–,–,–,EC50 [1]: 23 ± 20 nM; IC50 or EC50 (nM) Nuclei count (A549-EGFRB cells; [8]): N.E.; Alamar Blue viability assay IC50 A549 [2]: inactive; Alamar Blue viability assay IC50 H2030 [3]: inactive; Alamar Blue viability assay IC50 H3255 [4]: inactive; Alamar Blue viability assay IC50 HCC4011 [5]: inactive; IC50 (EGFR kinase): > 10000 nM; Luminescence ADP kinase assay IC50 EGFR (EGFR kinase): no inhibitory effects; Luminescence ADP kinase assay IC50 SRC (SRC kinase): no inhibitory effects; Luminescence ADP kinase assay IC50 VEGFR1 (VEGFR1 kinase): no inhibitory effects
1300 nM,–,–,–,–,–,–,CO[C@@H]1[C@H](N(C)C(=O)c2ccccc2)C[C@H]2O[C@]1(C)n1c3ccccc3c3c4c(c5c6ccccc6n2c5c31)C(=O)NC4 [PKC 412],–,–,–,–,–,–

# The next lines start with the compound.
SMILES,IC50 [1],IC50 [2],IC50 [3],IC50 [4],IC50 [5],IC50 (SRC kinase),IC50 (VEGFR1 kinase),inhibition at 10 µM [1],inhibition at 10 µM (A549-EGFRB cells),"IC50 [1, 6]",IC50 or EC50 (nM) Nuclei count (A549-EGFRB cells; [7]),HTS % inhibition at 10 μM Nuclei count (A549-EGFRB cells),further results
"C#Cc1cccc(Nc2ncnc3cc(OCCOC)c(OCCOC)cc23)c1 [Erlotinib, erlotinib]",–,–,–,–,–,–,–,–,36%,–,–,–,IC50 or EC50 (nM) Nuclei count (A549-EGFRB cells): N.E.
CCN(CC)CC1CCN(c2ncc3ncnc(Nc4ccc(F)c(Cl)c4)c3n2)CC1.Cl.Cl [BIBU 1361],–,–,–,–,–,–,–,–,–,38 ± 7 nM,N.E.,3%,IC50 (recombinant EGFR kinase): 3 nM
COC(=O)/C=C/c1cc(O)ccc1O [Erbstatin analog],–,–,–,–,–,–,–,–,–,–,N.E.^*,2%,"IC50 or EC50 (nM) Granule count [1, 6]: N.E.; Alamar Blue viability assay IC50 A549 [2]: only partial inhibition; Alamar Blue viability assay IC50 H2030 [3]: only partial inhibition; Alamar Blue viability assay IC50 H3255 [4]: only partial inhibition; Alamar Blue viability assay IC50 HCC4011 [5]: only partial inhibition; Luminescence ADP kinase assay IC50 EGFR (EGFR kinase): inactive; Luminescence ADP kinase assay IC50 SRC (SRC kinase): inactive; Luminescence ADP kinase assay IC50 ABL (ABL kinase): inactive; Luminescence ADP kinase assay IC50 VEGFR1 (VEGFR1 kinase): inactive"
COc1cc2ncnc(Nc3ccc(Cl)cc3F)c2cc1OC [ZM-306416],–,–,–,–,–,–,–,–,–,670 ± 200 nM,N.E.,21%,Alamar Blue viability assay IC50 A549 [2]: inactive; Alamar Blue viability assay IC50 H2030 [3]: inactive
"CC[C@@]1(O)C(=O)OCc2c1cc1n(c2=O)Cc2cc3ccccc3nc2-1 [Camptothecin, camptothecin]",720 ± 100 nM,35 ± 50 nM,17 ± 5 nM,390 ± 50 nM,290 ± 40 nM,> 10000 nM,> 10000 nM,81%,40%,–,N.E.^*,–,IC50 (EGFR kinase): > 10000 nM; IC50 (ABL kinase): > 10000 nM
COc1cc2ncnc(Nc3cccc(Br)c3)c2cc1OC [PD 153035],91 ± 20 nM,> 10000 nM,> 10000 nM,72 ± 12 nM,48 ± 12 nM,> 10000 nM,> 10000 nM,97%,12%,–,–,–,IC50 or EC50 (nM) Nuclei count (A549-EGFRB cells): N.E.
CN(C)c1cc2c(Nc3ccc4c(cnn4Cc4ccccc4)c3)ncnc2cn1 [GW 2974],–,–,–,–,–,–,–,–,–,1300 nM,N.E.,18%,–
CS(=O)(=O)CCNCc1nc(-c2ccc3ncnc(Nc4ccc(OCc5cccc(F)c5)c(Cl)c4)c3c2)cs1 [GW 583340],2000 nM,> 10000 nM,> 10000 nM,960 ± 60 nM,2000 ± 200 nM,> 10000 nM,> 10000 nM,94%,26%,–,N.E.,–,IC50 (EGFR kinase): 1300 ± 100 nM; IC50 (ABL kinase): > 10000 nM
COc1cc2ncnc(Nc3cccc(Cl)c3)c2cc1OC [Tyrphostin AG 1478],65 ± 8 nM,> 10000 nM,> 10000 nM,49 ± 1 nM,33 ± 7 nM,2600 ± 1300 nM,> 10000 nM,94%,12%,–,N.E.,–,IC50 (ABL kinase): 2000 ± 600 nM
"CO[C@H]1/C=C\C=C(/C)C(=O)NC2=CC(=O)C(NCCN(C)C)=C(C[C@@H](C)C[C@H](OC)[C@H](O)[C@@H](C)/C=C(\C)[C@@H]1OC(N)=O)C2=O [17-DMAG, 17-dimethylaminoethylamino-17-demethoxy-geldanamycin]",–,–,–,–,–,–,–,–,–,29 ± 3 nM,N.E.,33%,–
CCc1cc(-c2n[nH]c(C)c2-c2ccc3c(c2)OCCO3)c(O)cc1O [CCT 018159],–,–,–,–,–,–,–,–,–,–,–,–,Inhibition of granule formation in dose response ([1]; at 5 and 10 μM): partial inhibition
"C[C@H]1C[C@H]2[C@@H]3CCC4=CC(=O)C=C[C@]4(C)[C@@]3(Cl)[C@@H](O)C[C@]2(C)[C@@]1(O)C(=O)CO [Beclomethasone, beclomethasone]",–,–,–,–,–,–,–,–,–,–,–,16%,"EC50 ([1]; activators of granule formation, dose response up to 10 μM, ±standard deviation): 42 ± 7 nM; IC50 or EC50 (nM) Nuclei count (A549-EGFRB cells; [8]): N.E.; Luminescence ADP kinase assay IC50 EGFR (EGFR kinase): no inhibitory effects; Luminescence ADP kinase assay IC50 SRC (SRC kinase): no inhibitory effects; Luminescence ADP kinase assay IC50 ABL (ABL kinase): no inhibitory effects; Luminescence ADP kinase assay IC50 VEGFR1 (VEGFR1 kinase): no inhibitory effects"
"CC(C)[C@H](CO)Nc1nc(Nc2cc(N)cc(Cl)c2)c2ncn(C(C)C)c2n1 [Aminopurvalanol A, aminopurvalanol A]",–,–,–,–,–,–,–,–,–,910 ± 400 nM,N.E.^*,40%,–
